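Values below derive from 48-hour exposures of cells grown in 96-well plates, with endpoints linearly interpolated between the two concentrations bracketing the appropriate inhibition level. At the GI50, growth is halved. At the TGI there is no net growth.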
Tests used:
Assay in all cases: NCI anticancer screen, dose series, 48 h
[1] = test system: HCC-2998 colon
[2] = test system: RXF 393 renal
[3] = test system: HCT-116 colon
[4] = test system: HOP-62 NSCLC
[5] = test system: MOLT-4 leukemia
[6] = test system: ACHN renal
[7] = test system: A549 NSCLC
[8] = test system: MDA-MB-231 breast
[9] = test system: SK-MEL-28 melanoma
[10] = test system: 786-0 renal
[11] = test system: SN12C renal
[12] = test system: SNB-19 CNS
[13] = test system: K-562 leukemia
[14] = test system: BT-549 breast
[15] = test system: HL-60(TB) leukemia
[16] = test system: OVCAR-4 ovarian
[17] = test system: U251 CNS
[18] = test system: SF-295 CNS
[19] = test system: OVCAR-8 ovarian
[20] = test system: COLO 205 colon
[21] = test system: DU-145 prostate
[22] = test system: MDA-MB-435
[23] = test system: TK-10 renal
[24] = test system: SK-MEL-2 melanoma
[25] = test system: MALME-3M melanoma
[26] = test system: NCI-H460 lung
[27] = test system: KM12 colon
[28] = test system: EKVX NSCLC
[29] = test system: OVCAR-5 ovarian
[30] = test system: SR leukemia
[31] = test system: PC-3 prostate
[32] = test system: UO-31 renal
[33] = test system: HS 578T breast
[34] = test system: IGROV1 ovarian
[35] = test system: MDA-MB-468 breast
[36] = test system: HCT-15 colon
[37] = test system: SK-OV-3 ovarian
[38] = test system: CCRF-CEM leukemia
[39] = test system: SNB-75 CNS
[40] = test system: NCI-H522 lung
[41] = test system: OVCAR-3 ovarian
[42] = test system: HT29 colon
[43] = test system: HOP-92 NSCLC
[44] = test system: SF-268 CNS
[45] = test system: NCI-H23 lung
[46] = test system: LOX IMVI melanoma
[47] = test system: CAKI-1 renal
[48] = test system: MCF7 breast
[49] = test system: NCI-H226 lung
[50] = test system: T-47D breast
[51] = test system: UACC-257 melanoma
[52] = test system: RPMI-8226 leukemia
[53] = test system: SF-539 CNS
[54] = test system: UACC-62 melanoma

CC1=C2C(=C[C@@](C)(CO)[C@@H]2O)/C(=N\N)[C@](C)(O)C12CC2
GI50 [1]: 1.79 µM
TGI [1]: 3.77 µM
GI50 [2]: 1.51 µM
TGI [2]: 3.26 µM
GI50 [3]: 1.33 µM
TGI [3]: > 100 µM
GI50 [4]: 2.23 µM
TGI [4]: 5.32 µM
GI50 [5]: 2.4 µM
TGI [5]: > 100 µM
GI50 [6]: 0.86 µM
TGI [6]: 5.18 µM
GI50 [7]: 2.39 µM
TGI [7]: 22.8 µM
GI50 [8]: 2.25 µM
TGI [8]: 6.52 µM
GI50 [9]: 2.04 µM
TGI [9]: 4.11 µM
GI50 [10]: 2.97 µM
TGI [10]: 9.08 µM
GI50 [11]: 2.33 µM
TGI [11]: 6.66 µM
GI50 [12]: 2.51 µM
TGI [12]: 8.67 µM
GI50 [13]: 2.02 µM
TGI [13]: > 100 µM
GI50 [14]: 1.69 µM
TGI [14]: 4.43 µM
GI50 [15]: 1.44 µM
TGI [15]: 8.87 µM
GI50 [16]: 2.44 µM
TGI [16]: 7.16 µM
GI50 [17]: 0.416 µM
TGI [17]: > 100 µM
GI50 [18]: 1.74 µM
TGI [18]: > 100 µM
GI50 [19]: 1.86 µM
TGI [19]: 5.12 µM
GI50 [20]: 1.65 µM
TGI [20]: 3.65 µM
GI50 [21]: 0.812 µM
TGI [21]: 30.5 µM
GI50 [22]: 2.23 µM
TGI [22]: 5.58 µM
GI50 [23]: 3.1 µM
TGI [23]: 9.25 µM
GI50 [24]: 1.77 µM
TGI [24]: 3.33 µM
GI50 [25]: 1.7 µM
TGI [25]: 3.25 µM
GI50 [26]: 0.42 µM
TGI [26]: 6.63 µM
GI50 [27]: 2.98 µM
TGI [27]: > 100 µM
GI50 [28]: 2.17 µM
TGI [28]: 5.52 µM
GI50 [29]: 0.518 µM
TGI [29]: 33.8 µM
GI50 [30]: 2.12 µM
TGI [30]: > 100 µM
GI50 [31]: 2.55 µM
TGI [31]: 15.3 µM
GI50 [32]: 1.65 µM
TGI [32]: 4.66 µM
GI50 [33]: 2.88 µM
TGI [33]: 9.44 µM
GI50 [34]: 2.39 µM
TGI [34]: 7.62 µM
GI50 [35]: 0.977 µM
TGI [35]: 2.77 µM
GI50 [36]: 1.54 µM
TGI [36]: > 100 µM
GI50 [37]: 2.91 µM
TGI [37]: 7.87 µM
GI50 [38]: 2.93 µM
TGI [38]: > 100 µM
GI50 [39]: 1.36 µM
TGI [39]: 4.82 µM
GI50 [40]: 1.19 µM
TGI [40]: 3.64 µM
GI50 [41]: 2.63 µM
TGI [41]: 7.05 µM
GI50 [42]: 1.94 µM
TGI [42]: 8.75 µM
GI50 [43]: 2.54 µM
TGI [43]: 6.75 µM
GI50 [44]: 2.66 µM
TGI [44]: 21.8 µM
GI50 [45]: 1.08 µM
TGI [45]: 2.9 µM
GI50 [46]: 1.62 µM
TGI [46]: 4.99 µM
GI50 [47]: 2.44 µM
TGI [47]: > 100 µM
GI50 [48]: 0.405 µM
TGI [48]: > 100 µM
GI50 [49]: 2.11 µM
TGI [49]: 7.44 µM
GI50 [50]: 2.2 µM
TGI [50]: 6.71 µM
GI50 [51]: 2.25 µM
TGI [51]: 5.19 µM
GI50 [52]: > 100 µM
TGI [52]: > 100 µM
GI50 [53]: 1.85 µM
TGI [53]: 3.83 µM
GI50 [54]: 1.74 µM
TGI [54]: 3.23 µM

Reference: PubChem BioAssay (NCI)
